Measurements: patent US6258790A, “Antisense modulation of integrin α4 expression” (Isis Pharmaceuticals, Inc., priority 1999, dated 2001)

Legend:
human integrin α4 = test: Inhibition of human integrin α4 protein levels by antisense oligonucleotides (LIPOFECTIN, flow cytometry with CD49d-FITC) in A375 melanoma cells; assay type: cell-based
murine integrin α4 = test: Antisense inhibition of murine integrin α4 protein expression in IC-21 macrophage cells (flow cytometry, CD49d-PE); assay type: cell-based, mouse; conditions: for % Control / % Inhib.: Table 16
Procedure: Murine IC-21 macrophage cells (American Type Culture Collection, Manassas, Va.) were used for further study. Additional oligonucleotides were designed to target murine integrin α4. These are shown in Table 10; all 2' MOE nucleotides are shown in bold and remaining positions are 2' deoxy. All 2'-MOE cytosines in these compounds are 5' methylcytosines. IC-21 cells were seeded at 5×10^4 cell/well plates two days before assay. […] Wells were triplicates.
Cells (triplicates) were seeded at 2.5×10^4 cells/well in 24-well plates the day before treatment. Oligonucleotide concentrations were 0.2, 1, 5, 25 and 50 nM in 3 ug/ml LIPOFECTIN. Cells were harvested with 2 mM EDTA for 4 minutes, then 1 ml of 2% BSA, 0.2% azide was added per contents of each well.
IC-21 cells were treated with 0.3, 1, 3, 10 and 30 nM oligonucleotide with 3 ug/ml LIPOFECTIN for 4 hours. Cells were incubated for 24 hours, harvested with trypsin, stained with 2 ug/ml CD49d-PE and rat IgG2B as in previous examples.
These compounds were tested for ability to inhibit integrin α4 protein expression.

For “107248 (antisense CTGAGTCTGTTTTCCATTCT; chemistry not given here) [compound 107248]”, the “% Control” value (human integrin α4; Table 24, A375 cells, lipofectin, as Example 8) was 34%.
With “17044 (CCGCAGCCATGCGCTCTTGG; phosphorothioate, 2'-MOE/deoxy, further chemistry not given here) [compound 17044]” the “% Control” value (human integrin α4; Table 4, 10 nM) was 86%, the “% Inhib.” value (human integrin α4; Table 4, 10 nM) was 14% and the “% Control” value (human integrin α4; Table 4, 30 nM) was 73%. For the same substance, the “% Inhib.” value (human integrin α4; Table 4, 30 nM) was 27%, the “% Control” value (human integrin α4; Table 4, 100 nM) was 60% and the “% Inhib.” value (human integrin α4; Table 4, 100 nM) was 40%. The “% Control” value (human integrin α4; Table 4, 300 nM) was 58%, the “% Inhib.” value (human integrin α4; Table 4, 300 nM (highest dose)) was 42% and the “% Control” value (human integrin α4; Table 6, 10 nM) was 97%. The “% Control” value (human integrin α4; Table 6, 30 nM) was 84%, the “% Inhib.” value (human integrin α4; Table 6, 30 nM) was 16% and the “% Control” value (human integrin α4; Table 6, 100 nM) was 68%. The “% Inhib.” value (human integrin α4; Table 6, 100 nM) was 32%, the “% Control” value (human integrin α4; Table 6, 300 nM) was 39% and the “% Inhib.” value (human integrin α4; Table 6, 300 nM (highest dose)) was 61%. For the same substance, the “reduction of integrin α4 expression” value (murine integrin α4; Example 14) was “reduce integrin α4 expression to below starting levels”, the “% Control” value (murine integrin α4; 0.3 nM) was 100% and the “% Inhib.” value (murine integrin α4; 0.3 nM) was 0%. The “% Control” value (murine integrin α4; 1 nM) was 81%, the “% Inhib.” value (murine integrin α4; 1 nM) was 19% and the “% Control” value (murine integrin α4; 3 nM) was 32%. For the same substance, the “% Inhib.” value (murine integrin α4; 3 nM) was 68%, the “% Control” value (murine integrin α4; 10 nM) was -9% and the “% Inhib.” value (murine integrin α4; 10 nM) was > 100%.
